What all share (assay): growth of human tumour cells (NCI), 48 h
Assay [1] deals with CAKI-1.
The test system of assay [2] is CCRF-CEM.
Assay [3] relates to COLO 205.
For assay [4], the system named is HCT-116.
In assay [5] the test system is M14.
Assay [6] deals with MDA-N.
For assay [7], the system named is NCI-H23.
In assay [8] the test system is NCI-H522.
In assay [9] the test system is SF-295.
Assay [10] has as its system SK-OV-3.
Assay [11] has as its system SNB-19.
The test system of assay [12] is SNB-75.
For assay [13], the system named is SW-620.
Assay [14] concerns UACC-257.
Assay [15] concerns UO-31.
Assay [16] relates to HOP-92.
Assay [17] has as its system Hs-578T.
In assay [18] the test system is LOX IMVI.
For assay [19], the system named is NCI-H460.
The test system of assay [20] is T47D.

Structures are written as SMILES.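 Assay format: 96-well plates, 48-hour exposure. GI50: concentration for 50% inhibition of growth.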 Calls of active or inactive are those of the source. Cut-off read from the data, not from the text of the source: active = GI50 up to about 1.1 µM and inactive = higher.

This note sets out measurements from ChEMBL document CHEMBL1201862, “PubChem BioAssay data set” (2004).

Consider `CS(=O)(=O)c1nc(-c2cc3c(c(S(C)(=O)=O)n2)CCCC3)cc2c1CCCCC2`, for which the GI50 was 59.3 µM (inactive) in [1]; > 100 µM (inactive) in [2]; > 100 µM (inactive) in [3]; > 100 µM (inactive) in [4]; > 100 µM (inactive) in assay [5]; > 100 µM (inactive) in assay [6]. For the same molecule, the GI50 in assay [7] is > 100 µM (inactive); in assay [8], 21.1 µM (inactive); in [9], > 100 µM (inactive); in assay [10], 72.4 µM (inactive); in assay [11], > 100 µM (inactive); in assay [12] it was 22.4 µM (inactive). Also, the GI50 is > 100 µM (inactive) in assay [13], > 100 µM (inactive) in [14] and 0.0206 µM (active) in assay [15].

Consider `COC(=O)C1=C(C)NC(C)=C(C(=O)OC)C1c1ccccc1NO`, for which the GI50 in assay [1] was > 100 µM (inactive); in [2], 68.5 µM (inactive); in [3], > 100 µM (inactive); in assay [4] it was 21.9 µM (inactive); in assay [16] it was > 100 µM (inactive); in assay [17], > 100 µM (inactive). The GI50 in [18] is 40 µM (inactive); in assay [5], > 100 µM (inactive); in assay [7] it was > 100 µM (inactive); in assay [19], > 100 µM (inactive); in [8], > 100 µM (inactive); in assay [9], > 100 µM (inactive). The GI50 in assay [10] was > 100 µM (inactive); in assay [11] it was > 100 µM (inactive); in assay [13] it was 68.1 µM (inactive); in [20], > 100 µM (inactive); in [14], > 100 µM (inactive); in [15], > 100 µM (inactive).

For the molecule `CCOC(=O)c1ccc2c(c1)nc1n2C(c2c(F)cccc2F)SC1` (stereo unspecified), the GI50 in assay [1] is 78.3 µM (inactive); in [2], 33.5 µM (inactive); in [3], 14.2 µM (inactive); in assay [4] it was 15.6 µM (inactive); in assay [16] it was 40.6 µM (inactive); in assay [17], 26.2 µM (inactive). Further, the GI50 was 21.1 µM (inactive) in assay [18]; 27.9 µM (inactive) in assay [5]; 17.6 µM (inactive) in [7]; 26.3 µM (inactive) in [19]; 21.5 µM (inactive) in [9]; 94.6 µM (inactive) in [10]. The GI50 in assay [11] is 12.2 µM (inactive); in assay [12] it was 62.5 µM (inactive); in assay [13] it was 54.6 µM (inactive); in assay [20], 12.8 µM (inactive); in assay [14], 38 µM (inactive); in [15] it was 29.2 µM (inactive).

On to `Cc1cc(S(=O)(=O)NC2=NNC(C)CN2)c(S)cc1Cl` (stereo unspecified), for which the GI50 in assay [1] was 56.8 µM (inactive); in assay [2] it was 36.9 µM (inactive); in assay [3] it was > 100 µM (inactive); in [4] it was 38.4 µM (inactive); in assay [18] it was 18.4 µM (inactive); in [5], 27.7 µM (inactive). Moreover, the GI50 in assay [6] was 39.6 µM (inactive); in assay [7] it was 48.6 µM (inactive); in assay [19] it was 54.2 µM (inactive); in [8] it was 22.3 µM (inactive); in assay [9], 46.3 µM (inactive); in assay [10], > 100 µM (inactive). The GI50 in assay [11] was 60 µM (inactive); in [12] it was 93.5 µM (inactive); in assay [13], 32.3 µM (inactive); in [20], 37.8 µM (inactive); in assay [14], > 100 µM (inactive); in assay [15], 51.5 µM (inactive).

As to `COc1ccc(-c2nc(SCC(=O)N/N=C/c3ccc(O)c(OC)c3)[nH]c2-c2ccc(OC)cc2)cc1`, the GI50 in [1] is 54.3 µM (inactive); in [2], 3.44 µM (inactive); in assay [3] it was 19.8 µM (inactive); in assay [4] it was 17.9 µM (inactive); in assay [16], 23.7 µM (inactive); in assay [18], 22.8 µM (inactive). In addition, the GI50 in assay [5] was 22.9 µM (inactive); in assay [6] it was 22.1 µM (inactive); in assay [7] it was 21.9 µM (inactive); in assay [19], 23.2 µM (inactive); in assay [8] it was 19.2 µM (inactive); in [9], 20.2 µM (inactive). For the same molecule, the GI50 is 29.4 µM (inactive) in [10]; 41.1 µM (inactive) in [11]; 47.5 µM (inactive) in [12]; 30.8 µM (inactive) in assay [13]; 22.7 µM (inactive) in [20]; 25.5 µM (inactive) in assay [14]. Further, in assay [15], the GI50 is 34.7 µM (inactive).

Consider `Cc1csc(-n2c(C)nc3cc(Cl)ccc3c2=O)n1`, for which the GI50 is > 100 µM (inactive) in assay [1]; 74.8 µM (inactive) in [2]; 71 µM (inactive) in assay [3]; > 100 µM (inactive) in assay [4]; 10.4 µM (inactive) in [16]; 96.2 µM (inactive) in assay [18]. For the same molecule, the GI50 was > 100 µM (inactive) in assay [5]; > 100 µM (inactive) in [6]; 71.8 µM (inactive) in assay [7]; > 100 µM (inactive) in [19]; 22.2 µM (inactive) in assay [8]; > 100 µM (inactive) in [9]. In addition, the GI50 was > 100 µM (inactive) in assay [10]; > 100 µM (inactive) in [11]; > 100 µM (inactive) in [12]; > 100 µM (inactive) in assay [13]; 91.6 µM (inactive) in assay [14]; 58.2 µM (inactive) in assay [15].

`COc1ccc(-c2nc(-c3cc4c(ccc5ccccc54)oc3=O)cs2)cc1`: the GI50 was > 100 µM (inactive) in assay [1]; > 100 µM (inactive) in assay [2]; > 100 µM (inactive) in [3]; 59.8 µM (inactive) in [4]; > 100 µM (inactive) in assay [16]; > 100 µM (inactive) in assay [17]. Besides, the GI50 in assay [18], in assay [5], in [19], in assay [9], in [10] and in [11] was > 100 µM (inactive) each time. Also, the GI50 was 66.5 µM (inactive) in assay [12]; > 100 µM (inactive) in assay [13]; > 100 µM (inactive) in assay [20]; > 100 µM (inactive) in assay [14]; > 100 µM (inactive) in [15].

As for `Cc1cc(C#N)c(Nc2c(C)cccc2[N+](=O)[O-])s1`, the GI50 was 36.9 µM (inactive) in assay [1]; 16.6 µM (inactive) in assay [2]; > 100 µM (inactive) in assay [3]; 73.8 µM (inactive) in [4]; 24.3 µM (inactive) in assay [16]; > 100 µM (inactive) in assay [5]. Besides, the GI50 in assay [6] is 97.7 µM (inactive); in assay [7], 39.7 µM (inactive); in [19], 76.4 µM (inactive); in [8], 30.4 µM (inactive); in assay [9], 28.8 µM (inactive); in assay [10], 35.4 µM (inactive). Further, the GI50 in assay [11] was 68.2 µM (inactive); in assay [12], 21.5 µM (inactive); in assay [13], > 100 µM (inactive); in [20] it was 12.4 µM (inactive); in assay [14], 39.3 µM (inactive); in assay [15] it was > 100 µM (inactive).
